According to patent publication US20070219224A1, “Compositions and Methods Relating to Pyrimidine Synthesis Inhibitors” (UAB RESEARCH FOUNDATION, THE, priority 2004, published 2007):
Entries after “also recorded” stand apart in the source; their conditions may differ. Where two headings read alike, the source gives them in different places.

How the values were obtained:
[1] = tested on: RSV-infected BALB/c mice; assay: Alveolar fluid clearance (AFC) in RSV-infected mice at day 2 p.i.; type: in vivo; conditions: for effect on RSV-mediated inhibition of AFC at d2 (in words): systemic treatment (leflunomide oral gavage; uridine, 6-MP i.p.)
Procedure: Preparation of viral inocula and infection of mice. […] J. Physiol. Lung Cell Mol. Physiol. […] Data for each experimental group was derived from a minimum of 2 independent infections.
(§1) Systemic inhibition of de novo pyrimidine and purine synthesis. Leflunomide (5-methylisoxazole-4-[4-trifluoromethyl]carboxanilide, 35 mg/kg in distilled water containing 1% methylcellulose) was administered once daily by oral gavage in a volume of 300 μl/mouse for 8 days prior to infection, then throughout the infection period. Vehicle controls were gavaged with an equivalent volume of 1% methylcellulose in distilled water.
To systemically block de novo pyrimidine synthesis, mice were gavaged once daily for 8 days with […] of the dihydro-orotate reductase (DHOR) inhibitor leflunomide ([…] suspended in 1% methylcellulose) or vehicle prior to infection, then at 0 and 24 hours p.i. AFC studies were performed at 48 hours p.i., with no additions to the AFC instillate.
AFC studies were performed on anesthetized, ventilated BALB/c mice with normal body temperature and blood gases, over a 30 minute period after intratracheal instillation of 0.3 ml of isosmolar NaCl containing 5% fatty acid-free BSA. The number of mice analyzed per group is listed in the relevant bar of each graph.

[2] = type: in vivo; conditions: for body weight loss after RSV infection: D1 and d2 p.i., versus untreated RSV-infected mice
Procedure: (§2) Preparation of viral inocula and infection of mice. Preparation of viral stocks and intranasal infection of eight to twelve week-old pathogen-free BALB/c mice of either sex with RSV strain A2 (10^6 PFU in 100 μl) were performed as described in Davis et al., “Nucleotide-mediated inhibition of alveolar fluid clearance in BALB/c mice after respiratory syncytial virus infection,” Am. J. Physiol. Lung Cell Mol. Physiol. 286:L112-L120. (2004). Data for each experimental group was derived from a minimum of 2 independent infections.
as §1, with “water. […]” for “water.”

[3] = tested on: RSV-infected BALB/c mice; assay: Lung water content (wet:dry weight ratio) after RSV infection; type: in vivo; conditions: day 2, systemic treatment
Procedure: as §2
as §1, with “water. […]” for “water.”

[4] = tested on: RSV strain A2; assay: RSV replication in mouse lungs; type: in vivo, Respiratory syncytial virus; conditions: for virus replication in lung tissue at d2: RSV-infected mice, day 2 p.i., systemic treatment
Procedure: as §2
as §1, with “water. […]” for “water.”

Structure (SMILES): Cc1oncc1C(=O)Nc1ccc(C(F)(F)F)cc1 [Leflunomide, 5-methylisoxazole-4-[4-trifluoromethyl]carboxanilide]
- amiloride-sensitive part of AFC ([1]; RSV-infected leflunomide-treated mice at d2 (61% in uninfected, −8% in untreated mice at d2)): 57%
- AFC30BASAL (mean % basal AFC after 30 minutes ± SE) ([1]; RSV-infected mice, day 2 p.i., leflunomide 5 mg/kg oral gavage once daily, uridine 1 mg/kg i.p. q12h): 33.4 ± 3.00 %
- effect on RSV-mediated inhibition of AFC at d2 (in words) [1]: blocked RSV-induced inhibition of AFC
- effect on RSV-mediated inhibition of AFC at d2 (in words) ([1]; listed as LEF): reverses RSV-mediated inhibition of AFC
- effect on RSV-mediated inhibition of AFC at d2 (in words) ([1]; listed as leflunomide): prevented RSV-induced inhibition of AFC; also recorded: reversed the inhibitory effect of RSV on AFC
- body weight loss after RSV infection [2]: significantly reduced the degree of weight loss
- body weight loss after RSV infection ([2]; listed as LEF): significant reduction in weight loss
- body weight loss after RSV infection ([2]; listed as leflunomide): significantly reduced the degree of weight loss
- body weight during the pretreatment (preinfection) period ([2]; before RSV infection, leflunomide 8 days, 6-MP 5 days): no significant decline in body weight
- toxicity (inferred from body weight) ([2]; mouse, in vivo): very limited leflunomide toxicity
- lung water content (wet:dry weight ratio) (in words) [3]: normalization of lung wet:dry weight ratios
- lung water content (wet:dry weight ratio) (in words) ([3]; listed as LEF): reverses RSV-induced increased in lung water content
- lung water content (wet:dry weight ratio) (in words) ([3]; listed as leflunomide): restored normal lung wet:dry weight ratios
- virus replication in lung tissue at d2 [4]: unaffected
- virus replication in lung tissue at d2 ([4]; listed as LEF): no effect on virus replication
- virus replication at d8, treatment continued ([4]; leflunomide continued throughout the 8 day infection period): persisted at high levels
- virus replication at d8, treatment discontinued ([4]; leflunomide discontinued after d2): only minimally increased
